Test results from PubChem BioAssay AID330 (DTP/NCI, 2004).
Where “and” joins values, the source holds several entries; their conditions need not be identical. Equal entries are not always repeated. Inconclusive results and toxic doses are left out. How the source made its calls: active means survival T/C of 150% or more; inactive means T/C below 125% in these data.

Tested on: P388 leukemia ip, CD2F1 mice, survival T/C
Assay: NCI In Vivo Anticancer Drug Screen. Data for tumor model P388 Leukemia (intraperitoneal) in CD2F1 (CDF1) mice
Details: endpoint: median survival time, higher = longer survival
Summary of the method: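 Mice carrying the transplanted tumor received test compound or vehicle. Survival was recorded in each group, and the value is the treated-group measurement divided by that of the vehicle-treated control group.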

[1] = dose: 100.0 mg/kg/injection, schedule: Q04DX003 (ip), vehicle: saline with Tween-80
[2] = dose: 200.0 mg/kg/injection, schedule: Q04DX003 (ip), vehicle: saline with Tween-80
[3] = dose: 100.0 mg/kg/injection, schedule: Q01DX009 (ip), vehicle: saline with Tween-80
[4] = dose: 200.0 mg/kg/injection, schedule: Q01DX009 (ip), vehicle: saline with Tween-80
[5] = dose: 50.0 mg/kg/injection, schedule: Q01DX009 (ip), vehicle: saline with Tween-80
[6] = dose: 50.0 mg/kg/injection, schedule: Q01DX005 (ip), vehicle: saline with Tween-80
[7] = dose: 100.0 mg/kg/injection, schedule: Q01DX005 (ip), vehicle: saline with Tween-80

Measured: T/C

O=C(O)CCCCc1ccc(CCCCC(=O)O)c2ccccc12
inactive: [1] 103 % of control | [2] 102 % of control | dose: 400.0 mg/kg/injection, schedule: Q04DX003 (ip), vehicle: saline with Tween-80 99 % of control

[Cl][Hg][c]1cccc(I)c1N=Nc1ccccc1
inactive: dose: 2.5 mg/kg/injection, schedule: Q01DX009 (ip), vehicle: saline + alcohol 104 % of control | dose: 5.0 mg/kg/injection, schedule: Q01DX009 (ip), vehicle: saline + alcohol 94 % of control

CN(C)C1CCC(NC2=CC(=O)C=CC2=O)CC1 (stereo unspecified)
inactive: dose: 0.78 mg/kg/injection, schedule: Q01DX005 (ip), vehicle: saline 101 % of control | dose: 1.56 mg/kg/injection, schedule: Q01DX005 (ip), vehicle: saline 97 % of control | dose: 3.12 mg/kg/injection, schedule: Q01DX005 (ip), vehicle: saline 97 % of control

CC(=O)ON(C(C)=O)c1ccc(C(=O)OC2(C)CC(C)(C)N=N2)cc1 (stereo unspecified)
inactive: dose: 12.5 mg/kg/injection, schedule: Q01DX009 (ip), vehicle: saline with Tween-80 86 % of control | [3] 87 % of control | [4] 106 % of control

Clc1ccc(C(c2ccccc2Cl)C(Cl)Cl)cc1 (stereo unspecified)
inactive: dose: 8.0 mg/kg/injection, schedule: Q03HX024 (ip), vehicle: saline 105 % of control | dose: 16.0 mg/kg/injection, schedule: Q03HX008 (ip), vehicle: saline 100 % of control | dose: 16.0 mg/kg/injection, schedule: Q03HX016 (ip), vehicle: saline 100 % of control | dose: 16.0 mg/kg/injection, schedule: Q03HX024 (ip), vehicle: saline 100 % of control | dose: 32.0 mg/kg/injection, schedule: Q03HX008 (ip), vehicle: saline 100 % of control | dose: 32.0 mg/kg/injection, schedule: Q03HX016 (ip), vehicle: saline 100 % of control | dose: 32.0 mg/kg/injection, schedule: Q03HX024 (ip), vehicle: saline 100 % of control | dose: 64.0 mg/kg/injection, schedule: Q01DX009 (ip), vehicle: saline 90 % of control | dose: 64.0 mg/kg/injection, schedule: Q03HX008 (ip), vehicle: saline 100 % of control | dose: 64.0 mg/kg/injection, schedule: Q03HX016 (ip), vehicle: saline 115 % of control | dose: 64.0 mg/kg/injection, schedule: Q03HX024 (ip), vehicle: saline 110 % of control | dose: 64.0 mg/kg/injection, schedule: Q04DX003 (ip), vehicle: saline 104 % of control | dose: 128.0 mg/kg/injection, schedule: Q01DX001 (ip), vehicle: saline 109 % of control | dose: 128.0 mg/kg/injection, schedule: Q01DX009 (ip), vehicle: saline 90 % of control | dose: 128.0 mg/kg/injection, schedule: Q03HX008 (ip), vehicle: saline 100 % of control | dose: 128.0 mg/kg/injection, schedule: Q03HX016 (ip), vehicle: saline 110 % of control | dose: 128.0 mg/kg/injection, schedule: Q03HX024 (ip), vehicle: saline 100 % of control | dose: 128.0 mg/kg/injection, schedule: Q04DX003 (ip), vehicle: saline 100 % of control | dose: 128.0 mg/kg/injection, schedule: Q08DX002 (ip), vehicle: saline 100 % of control | dose: 256.0 mg/kg/injection, schedule: Q01DX001 (ip), vehicle: saline 100 % of control | dose: 256.0 mg/kg/injection, schedule: Q01DX001 (oral), vehicle: saline 104 % of control | dose: 256.0 mg/kg/injection, schedule: Q01DX009 (ip), vehicle: saline 95 % of control | dose: 256.0 mg/kg/injection, schedule: Q01DX009 (oral), vehicle: saline 104 % of control | dose: 256.0 mg/kg/injection, schedule: Q04DX003 (ip), vehicle: saline 100 % of control | dose: 256.0 mg/kg/injection, schedule: Q04DX003 (oral), vehicle: saline 100 % of control | dose: 256.0 mg/kg/injection, schedule: Q08DX002 (ip), vehicle: saline 90 % of control | dose: 512.0 mg/kg/injection, schedule: Q01DX001 (ip), vehicle: saline 109 % of control | dose: 512.0 mg/kg/injection, schedule: Q01DX001 (oral), vehicle: saline 100 % of control | dose: 512.0 mg/kg/injection, schedule: Q01DX009 (ip), vehicle: saline 86 % of control | dose: 512.0 mg/kg/injection, schedule: Q01DX009 (oral), vehicle: saline 109 % of control | dose: 512.0 mg/kg/injection, schedule: Q04DX003 (ip), vehicle: saline 90 % of control | dose: 512.0 mg/kg/injection, schedule: Q04DX003 (oral), vehicle: saline 100 % of control | dose: 512.0 mg/kg/injection, schedule: Q08DX002 (ip), vehicle: saline 100 % of control | dose: 1024.0 mg/kg/injection, schedule: Q01DX001 (ip), vehicle: saline 100 % of control | dose: 1024.0 mg/kg/injection, schedule: Q01DX001 (oral), vehicle: saline 100 % of control | dose: 1024.0 mg/kg/injection, schedule: Q01DX009 (oral), vehicle: saline 100 % of control | dose: 1024.0 mg/kg/injection, schedule: Q04DX003 (ip), vehicle: saline 90 % of control | dose: 1024.0 mg/kg/injection, schedule: Q04DX003 (oral), vehicle: saline 100 % of control | dose: 1024.0 mg/kg/injection, schedule: Q08DX002 (ip), vehicle: saline 104 % of control | dose: 2048.0 mg/kg/injection, schedule: Q01DX001 (oral), vehicle: saline 109 % of control | dose: 2048.0 mg/kg/injection, schedule: Q01DX009 (oral), vehicle: saline 100 % of control | dose: 2048.0 mg/kg/injection, schedule: Q04DX003 (oral), vehicle: saline 100 % of control

O=S(=O)(OCCCl)c1ccc(F)cc1
inactive: [5] 109 % of control | [3] 101 % of control | [4] 100 % of control

COc1ccc(S(=O)(=O)c2cnc(N3CCCCC3)nc2N)cc1
inactive: dose: 100.0 mg/kg/injection, schedule: Q04DX002 (ip), vehicle: saline 100 % of control | dose: 200.0 mg/kg/injection, schedule: Q04DX002 (ip), vehicle: saline 98 % of control | dose: 400.0 mg/kg/injection, schedule: Q04DX002 (ip), vehicle: saline 97 % of control

CC(=O)N1N=C(c2ccc(OCC(O)CN3CCN(CC(O)COc4ccc(C5=NN(C(C)=O)C(c6ccccc6)C5)cc4)CC3)cc2)CC1c1ccccc1 (stereo unspecified)
inactive: [6] 100 % of control | [7] 86 % of control

O=C(NC1c2ccccc2Oc2ccccc21)OC1CCCCC1
inactive: [6] 92 % of control | [7] 96 % of control | dose: 200.0 mg/kg/injection, schedule: Q01DX005 (ip), vehicle: saline with Tween-80 100 % of control

COc1ccc(-c2cc(=O)c3c(O)cc(O)cc3o2)cc1
inactive: [5] 90 % of control | [3] 90 % of control | [1] 90 % of control | [4] 110 % of control | [2] 90 % of control

C=C1c2cccc(O)c2C(O)=C2C(=O)[C@]3(O)C(O)=C(C(N)=O)C(=O)[C@@H](N(C)C)[C@@H]3[C@@H](O)[C@H]12
inactive: dose: 21.6 mg/kg/injection, schedule: Q01DX005 (ip), vehicle: Klucel (hydroxypropylcellulose) (HPC) 105 % of control | dose: 25.0 mg/kg/injection, schedule: Q01DX005 (ip), vehicle: Klucel (hydroxypropylcellulose) (HPC) 105 % of control and 115 % of control | dose: 36.0 mg/kg/injection, schedule: Q01DX005 (ip), vehicle: Klucel (hydroxypropylcellulose) (HPC) 99 % of control and 106 % of control | dose: 60.0 mg/kg/injection, schedule: Q01DX005 (ip), vehicle: Klucel (hydroxypropylcellulose) (HPC) 102 % of control and 97 % of control | dose: 166.66 mg/kg/injection, schedule: Q01DX005 (ip), vehicle: Klucel (hydroxypropylcellulose) (HPC) 115 % of control | dose: 166.67 mg/kg/injection, schedule: Q01DX005 (ip), vehicle: Klucel (hydroxypropylcellulose) (HPC) 112 % of control | dose: 400.0 mg/kg/injection, schedule: Q01DX005 (ip), vehicle: Klucel (hydroxypropylcellulose) (HPC) 87 % of control
